In patent publication US10071244B2, “Thoracoscopic electroporation device with a suction head and with needle electrodes” (UNIVERSITY COLLEGE CORK—NATIONAL UNIVERSITY OF IRELAND, CORK, priority 2012, dated 2018):

Tested on: tumour tissue
Experiment: Evans Blue perfusion test in tumour-bearing mouse
Type: in vivo
Description: FIG. 53 illustrates the result of an Evans Blue perfusion test;
Perfusion • A. One of the physiological impediments reducing the efficacy of chemotherapy relates to the poor diffusion of the drug from the capillaries through to the interstitial spaces surrounding the tumour cells. Poor lymphatic drainage and an irregular vasculature leads to the tumour interstitial pressure increasing with time as the tumour grows. This positive pressure is the opposite of normal tissue where a slightly negative interstitial pressure allows for convection of molecules across the capillaries. See FIG. 51 in which the X-axis represents the tumour volume in cm^3, Y-axis represents tumour interstitial pressure readings in mmHg. Each dot represents one TIP reading at a given tumour volume. Linear line represents correlation coefficients between tumour volume and TIP. • B. The positive pressure within the tumour tissue can be immediately negated through the placement of a vacuum directly on the tumour tissue. […] This facilitates better drug perfusion throughout the tumour interstitial spaces (between the cells) by allowing convection of macromolecules from the capilliaries to the […]. • C. This correction allows for perfusion of the chemotherapy from the capillaries into the tumour tissue. […]

dye perfusion into tumour, no vacuum (15 mins after injection into blood supply, tumour excised and dissected): only the periphery has absorbed the dye
SMILES: Cc1cc(-c2ccc(/N=N/c3ccc4c(S(=O)(=O)O)cc(S(=O)(=O)O)c(N)c4c3O)c(C)c2)ccc1/N=N/c1ccc2c(S(=O)(=O)O)cc(S(=O)(=O)O)c(N)c2c1O [Evans blue]
dye perfusion into tumour, with vacuum (vacuum applied to the tumour for 1 minute at 200 mmHg of negative pressure): Deep permeation of the dye is achieved throughout the tumour tissue
